Laboratory results taken from patent publication US12570639B2, “Tetrahydroquinoline derivative and medicinal use thereof” (Toray Industries, Inc., priority 2020, dated 2026).
pEC50: −log10 of the molar value. Structures can show the parent of a compound that is named as a salt.

Assays:
[1] = tested on: Human fibrosarcoma cells (HT-1080 cells); test: In vitro inhibitory action against ferroptosis (Erastin-induced cell death, Cell Counting Kit-8); assay type: cell-based; settings: Erastin 3 μmol/L, 24 hours
Protocol: The inhibitory action against ferroptosis of the tetrahydroquinoline derivative (I) or a pharmaceutically acceptable salt thereof was evaluated with Human fibrosarcoma cells (HT-1080 cells), by using, as an index, the inhibitory action against the cell death induced by treatment with a ferroptosis inducer, Erastin.
HT-1080 cells (ATCC) were cultured in a mixture (hereinafter referred to as vehicle) composed of DMEM/F12 (Thermo Fisher Scientific, Inc.), a final concentration of 10% fetal bovine serum (Thermo Fisher Scientific, Inc.), and a final concentration of 1% penicillin-streptomycin solution (Nacalai Tesque, Inc.). Cells were seeded into 96-well plates (Corning Inc.) at 5×10^4 cells/well and cultured overnight.
A test compound was dissolved in DMSO, and the resulting solution was diluted in the vehicle to a final concentration of 1% DMSO and then used. […] Thirty minutes after the addition of the test compound, Erastin (Cayman Chemical Co.) diluted in the vehicle at a final concentration of 3 μmol/L was added to wells. The wells added with the test compound and Erastin were grouped as “test compound,” and the wells added with no test compound and no Erastin were grouped as “background,” and the wells added with no test compound but with Erastin were grouped as “control.” Twenty-four hours after the addition of Erastin, 5 μL of Cell Counting Kit-8 (Dojindo Laboratories) was added to each well and incubated for 4 hours, and the absorbance at 450 nm was then measured for each well (N=2). […] Ferroptosis inhibition rate (%)=[1−{(Average absorbance value at 450 nm measured when a test compound is added)−(Average absorbance value at 450 nm measured in the background)}/{(Average absorbance value at 450 nm measured in the control)−(Average absorbance value at 450 nm measured in the background)}]×100 Equation 1

[2] = In vitro radical scavenging action (DPPH method); settings: 30 minutes at room temperature, maximum concentration 100 μmol/L
Protocol: Radical scavenging action was evaluated using the DPPH method in the compound of Comparative Example 1, which is a tetrahydroquinoxaline derivative, and in the tetrahydroquinoline derivative (I) or a pharmaceutically acceptable salt thereof. The DPPH method was performed using an antioxidant capacity measurement kit (Dojindo Laboratories).
A test compound was dissolved in DMSO, and the resulting solution was then mixed with an assay buffer and a DPPH solution, which are included in the kit, to a total volume of 200 μL to obtain a final concentration of 10% DMSO, and the reaction was allowed to proceed. Wells added with 100 μmol/L ferrostatin-1, a radical scavenger, were grouped as “control,” and wells added with not test compound were grouped as “background.” The test compound was serially diluted 3-fold starting from a maximum concentration of 100 μmol/L, and the diluted test compound (1.2, 3.7, 11.1, 33.3, or 100 μmol/L) was added and allowed to react at room temperature. Thirty minutes after the reaction, the absorbance at 517 nm was measured, and the average absorbance value was calculated (N=2). The radical scavenging action of the test compound (hereinafter referred to as radical scavenging rate, %) was calculated based on the equation 2 below. The EC50 value of the test compound was calculated from the radical scavenging rate. Radical scavenging rate (%)=[1−{(Average absorbance value at 517 nm measured when a test compound is added)−(Average absorbance value at 517 nm measured in the background)}/{(Average absorbance value at 517 nm measured in the control)−(Average absorbance value at 517 nm measured in the background)}]×100 Equation 2
A note “no detection of radical scavenging action (N.D.),” is given to compounds with a EC50 of >100 μmol/L.

[3] = evaluation concentration 30 μmol/L
[4] = evaluation concentration 50 μmol/L

pEC50 [2] | Structure (SMILES) | Ferroptosis inhibition rate (%) [1, 3] | also measured
< 4.00 | Cc1cccc2c1CCC(c1ccc(S(N)(=O)=O)cc1)N2 (centres unmarked) [Example 112, 4-(5-methyl-1,2,3,4-tetrahydroquinolin-2-yl)benzenesulfonamide] | 105.5% | –
< 4.00 | NS(=O)(=O)c1ccc(C2CCc3ccc(F)cc3N2)cc1 (centres unmarked) [Example 118, 4-(7-fluoro-1,2,3,4-tetrahydroquinolin-2-yl)benzenesulfonamide] | 95.28% | –
< 4.00 | CC(=O)Nc1ccc(C2CCc3ccccc3N2)cc1 (centres unmarked) [Example 21, N-(4-(1,2,3,4-tetrahydroquinolin-2-yl)phenyl)acetamide] | 88.33% | –
< 4.00 | CS(=O)(=O)c1ccc(C2CCc3ccccc3N2)cc1 (centres unmarked) [Example 16, 2-(4-(methylsulfonyl)phenyl)-1,2,3,4-tetrahydroquinoline] | – | Ferroptosis inhibition rate (%) [1, 4]: 90.31%
< 4.00 | Clc1ccc2c(c1)CCC(c1ccccc1)N2 (centres unmarked) [Example 83, 6-chloro-2-phenyl-1,2,3,4-tetrahydroquinoline] | – | Ferroptosis inhibition rate (%) [1, 4]: 103.8%
< 4.00 | FC(F)(F)Oc1ccc(C2CCc3ccccc3N2)cc1 (centres unmarked) [Example 31, 2-(4-(trifluoromethoxy)phenyl)-1,2,3,4-tetrahydroquinoline] | – | Ferroptosis inhibition rate (%) [1, 4]: 98.99%
< 4.00 | NC(=O)c1ccc(C2CCc3ccccc3N2)cc1 (centres unmarked) [Example 37, 4-(1,2,3,4-tetrahydroquinolin-2-yl)benzamide] | 98.69% | –
< 4.00 | Fc1ccc2c(c1)CCC(c1ccccc1)N2 (centres unmarked) [Example 82, 6-fluoro-2-phenyl-1,2,3,4-tetrahydroquinoline] | 112.6% | –
< 4.00 | CS(=O)(=O)Nc1ccc(C2CCc3ccccc3N2)cc1 (centres unmarked) [Example 136, N-(4-(1,2,3,4-tetrahydroquinolin-2-yl)phenyl)methanesulfonamide] | 75.50% | –
< 4.00 | NS(=O)(=O)c1ccc(C2CCc3ccccc3N2)cc1 (centres unmarked) [Example 34, 4-(1,2,3,4-tetrahydroquinolin-2-yl)benzenesulfonamide] | 86.96% | –
< 4.00 | NS(=O)(=O)c1ccc(C2CCc3cc(Cl)ccc3N2)cc1 (centres unmarked) [Example 115, 4-(6-chloro-1,2,3,4-tetrahydroquinolin-2-yl)benzenesulfonamide] | 105.8% | –

Continued, compound first:

Structure (SMILES) | pEC50 [2] | Ferroptosis inhibition rate (%) [1, 3] | also measured
O=C(Cc1ccc2c(c1)CCC(c1ccccc1)N2)NC1CCC1 (centres unmarked) [Example 155, N-cyclobutyl-2-(2-phenyl-1,2,3,4-tetrahydroquinolin-6-yl)acetamide] | < 4.00 | 106.1% | –
O=C(Cc1ccc2c(c1)CCC(c1ccccc1)N2)NC1COC1 (centres unmarked) [Example 148, N-(oxetan-3-yl)-2-(2-phenyl-1,2,3,4-tetrahydroquinolin-6-yl)acetamide] | < 4.00 | 86.55% | –
CC1(C)CN(C(=O)Cc2ccc3c(c2)CCC(c2ccccc2)N3)C1 (centres unmarked) [Example 146, 1-(3,3-dimethylazetidin-1-yl)-2-(2-phenyl-1,2,3,4-tetrahy-dro-quin-olin-6-yl)ethan-1-one] | < 4.00 | 112.8% | –
COC1CN(C(=O)Cc2ccc3c(c2)CCC(c2ccccc2)N3)C1 (centres unmarked) [Example 147, 1-(3-methoxyazetidin-1-yl)-2-(2-phenyl-1,2,3,4-tetrahydroquinolin-6-yl)ethan-1-one] | < 4.00 | 93.00% | –
O=C(Cc1ccc2c(c1)CCC(c1ccccc1)N2)N1CC(O)C1 (centres unmarked) [Example 143, 1-(3-hydroxyazetidin-1-yl)-2-(2-phenyl-1,2,3,4-tetrahydroquinolin-6-yl)ethan-1-one hydrochloride] | < 4.00 | – | Ferroptosis inhibition rate (%) ([1]; evaluation concentration 30 μmol/L, hydrochloride): 93.97%
FC(F)(F)Oc1ccc2c(c1)CCC(c1ccccc1)N2 (centres unmarked) [Example 81, 2-phenyl-6-(trifluoromethoxy)-1,2,3,4-tetrahydroquinoline] | < 4.00 | – | Ferroptosis inhibition rate (%) [1, 4]: 103.9%
NC(=O)c1ccc(C2CCc3cc(Cl)ccc3N2)cc1 (centres unmarked) [Example 121, 4-(6-chloro-1,2,3,4-tetrahydroquinolin-2-yl)benzamide] | < 4.00 | – | Ferroptosis inhibition rate (%) ([1]; evaluation concentration 10 μmol/L): 92.10%
NC(=O)c1ccc(C2CCc3c(Cl)cccc3N2)cc1 (centres unmarked) [Example 138, 4-(5-chloro-1,2,3,4-tetrahydroquinolin-2-yl)benzamide] | < 4.00 | 65.15% | –
O=C(Cc1ccc2c(c1)CCC(c1ccccc1)N2)NC1CC1 (centres unmarked) [Example 152, N-cyclopropyl-2-(2-phenyl-1,2,3,4-tetrahydroquinolin-6-yl)acetamide] | < 4.00 | 108.1% | –
O=C1CN(C(=O)Cc2ccc3c(c2)CCC(c2ccccc2)N3)CCN1 (centres unmarked) [Example 157] | < 4.00 | 69.89% | –
Cc1ccc2c(c1)CCC(c1ccc(C(N)=O)cc1)N2 (centres unmarked) [Example 99, 4-(6-methyl-1,2,3,4-tetrahydroquinolin-2-yl)benzamide] | < 4.00 | 98.85% | –
c1ccc(C2CNc3ccccc3N2)cc1 (centres unmarked) [Comparative Example 1, 2-phenyl-1,2,3,4-tetrahydroquinoxaline, reference compound] | 5.07 | – | Radical-scavenging action EC50 (μmol/L) [2]: exhibited radical scavenging action
Fc1cc(F)c2c(c1)CCC(c1ccccc1)N2 (centres unmarked) [Example 86, 6,8-difluoro-2-phenyl-1,2,3,4-tetrahydroquinoline] | – | – | Ferroptosis inhibition rate (%) [1, 4]: 98.80%
Cc1ccc2c(c1)CCC(c1cn[nH]c1)N2 (centres unmarked) [Example 97, 6-methyl-2-(1H-pyrazol-4-yl)-1,2,3,4-tetrahydroquinoline] | – | 83.94% | –
Cc1ccc2c(c1)CCC(c1ccc(NS(N)(=O)=O)cc1)N2 (centres unmarked) [Example 114, N-(4-(6-methyl-1,2,3,4-tetrahydroquinolin-2-yl)phenyl)sulfamoylamine] | – | 87.04% | –
OCc1ccccc1C1CCc2ccccc2N1 (centres unmarked) [Example 47, (2-(1,2,3,4-tetrahydroquinolin-2-yl)phenyl)methanol] | – | 85.21% | –
NC(=O)c1ccc(C2CNc3ccccc3C2)cc1 (centres unmarked) [Example 166, 4-(1,2,3,4-tetrahydroquinolin-3-yl)benzamide] | – | 96.52% | –
Clc1ccc2c(c1)CC(c1ccccc1)CN2 (centres unmarked) [Example 163, 6-chloro-3-phenyl-1,2,3,4-tetrahydroquinoline] | – | 89.32% | –
N#Cc1ccc(C2CCc3ccccc3N2)cc1F (centres unmarked) [Example 141] | – | 59.10% | –
Clc1ccc2c(c1)CCC(c1cn[nH]c1)N2 (centres unmarked) [Example 96, 6-chloro-2-(1H-pyrazol-4-yl)-1,2,3,4-tetrahydroquinoline] | – | 98.01% | –
C[C@@H]1C[C@H](c2ccccc2)Nc2ccccc21 (relative stereo) [Example 90, (2R*,4R*)-4-methyl-2-phenyl-1,2,3,4-tetrahydroquinoline] | – | 102.4% | –
CC(C)(C)OC(=O)Nc1ccc2c(c1)CCC(c1ccccc1)N2 (centres unmarked) [Example 63, tert-butyl (2-phenyl-1,2,3,4-tetrahydroquinolin-6-yl)carbamate] | – | – | Ferroptosis inhibition rate (%) [1, 4]: 68.73%
OC1(c2ccc3c(c2)CCC(c2ccccc2)N3)COC1 (centres unmarked) [Example 71, 3-(2-phenyl-1,2,3,4-tetrahydroquinolin-6-yl)oxetan-3-ol] | – | 108.9% | –
Cc1ccc2c(c1)CCC(c1cnoc1)N2 (centres unmarked) [Example 104, 4-(6-methyl-1,2,3,4-tetrahydroquinolin-2-yl)isoxazole] | – | 64.65% | –
OCc1ccc(C2CCc3ccccc3N2)cc1 (centres unmarked) [Example 49, (4-(1,2,3,4-tetrahydroquinolin-2-yl)phenyl)methanol] | – | 99.20% | –
